According to US10532040B2, “Methods of treating cancer with herbacetin” (REGENTS OF THE UNIVERSITY OF MINNESOTA, priority 2011, dated 2020):
Entries after “also recorded” stand apart in the source; their conditions may differ.

Columns and labels:
[1] = target: T1, ODC (WT, D44A, D243A, E384A) (Homo sapiens, UniProt P11926, D44A); experiment: pull-down assay with ectopically expressed ODC mutants in HCT116 cells; type: binding; settings: D44A mutant compared with D243A, E384A and WT
T1 construct: expressed in transfected cells; host or cells: HCT116 colon cancer cells
T1 sequence (P11926 1-461 D44A): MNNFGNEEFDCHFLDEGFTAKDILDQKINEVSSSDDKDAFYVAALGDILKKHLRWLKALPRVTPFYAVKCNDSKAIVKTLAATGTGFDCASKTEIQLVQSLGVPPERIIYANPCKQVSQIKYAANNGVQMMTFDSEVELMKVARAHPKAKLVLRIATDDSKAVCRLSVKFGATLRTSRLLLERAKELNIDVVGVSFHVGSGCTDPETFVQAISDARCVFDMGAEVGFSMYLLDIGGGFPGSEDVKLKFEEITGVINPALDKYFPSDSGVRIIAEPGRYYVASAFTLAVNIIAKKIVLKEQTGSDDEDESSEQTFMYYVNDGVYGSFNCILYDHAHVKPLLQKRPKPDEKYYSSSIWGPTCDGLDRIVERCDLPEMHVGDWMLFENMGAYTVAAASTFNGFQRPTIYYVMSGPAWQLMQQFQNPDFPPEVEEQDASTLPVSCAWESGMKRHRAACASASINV
Protocol: A recombinant human ODC protein (200 ng) or total cell lysates (500 μg) to were incubated with herbacetin Sepharose 4B (or Sepharose 4B only as a control) beads (50 μl, 50% slurry) in reaction buffer (50 mM Tris pH 7.5, 5 mM EDTA, 150 mM NaCl, 1 mM DTT, 0.01% NP40, 2 μg/mL bovine serum albumin). After incubation with gentle rocking overnight at 4° C., the beads were washed 5 times with buffer (50 mM Tris pH 7.5, 5 mM EDTA, 150 mM NaCl, 1 mM DTT, 0.01% NP40) and binding was determined by Western blotting.

ODC = target: T2, ODC (Mus musculus, UniProt P00860); experiment: ODC activity in TPA-treated JB6 mouse skin epidermal cells; type: cell-based
T2 construct: endogenous in cells; host or cells: JB6 mouse skin epidermal cells, TPA-treated
T2 sequence (P00860 1-461): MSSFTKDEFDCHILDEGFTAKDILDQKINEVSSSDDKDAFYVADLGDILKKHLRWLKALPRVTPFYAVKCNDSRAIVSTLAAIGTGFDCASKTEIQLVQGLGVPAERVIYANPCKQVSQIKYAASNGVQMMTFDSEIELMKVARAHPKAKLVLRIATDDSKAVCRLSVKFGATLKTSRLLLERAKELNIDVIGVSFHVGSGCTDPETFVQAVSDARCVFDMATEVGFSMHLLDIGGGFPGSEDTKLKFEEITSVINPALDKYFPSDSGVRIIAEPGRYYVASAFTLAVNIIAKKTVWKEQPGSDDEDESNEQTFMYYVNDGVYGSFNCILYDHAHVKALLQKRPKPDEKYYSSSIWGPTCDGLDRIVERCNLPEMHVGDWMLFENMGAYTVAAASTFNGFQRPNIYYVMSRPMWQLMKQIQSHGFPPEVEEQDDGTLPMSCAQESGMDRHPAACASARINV
Protocol: ODC activity was measured as the release of CO2 from L-[1-C^14] ornithine as previously described ([…]).

O=c1c(O)c(-c2ccc(O)cc2)oc2c(O)c(O)cc(O)c12 [herbacetin, 3,5,7,8,4′-Pentahydroxyflavone]
binding affinity of ODC mutant with herbacetin [1]: most reduced binding affinity
suppression of ODC activity (ODC): markedly more effective than DFMO; also recorded: inhibit TPA-induced ODC1 activity
